Here are results for 16 compounds from PubChem BioAssay AID330 (DTP/NCI, 2004).

The assay deals with P388 leukemia ip, CD2F1 mice, survival T/C. Kind of assay: NCI In Vivo Anticancer Drug Screen. Data for tumor model P388 Leukemia (intraperitoneal) in CD2F1 (CDF1) mice. The conditions noted are these: endpoint: median survival time, higher = longer survival. In a few lines: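 Mice carrying the transplanted tumor received test compound or vehicle. Survival was recorded in each group, and the value is the treated-group measurement divided by that of the vehicle-treated control group.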

Where [1] appears, read: dose: 50.0 mg/kg/injection, schedule: Q01DX009 (ip), vehicle: saline.
Setting [2] is: dose: 100.0 mg/kg/injection, schedule: Q01DX009 (ip), vehicle: saline.
The mark [3] stands for this setting: dose: 200.0 mg/kg/injection, schedule: Q01DX009 (ip), vehicle: saline.
Where [4] appears, read: dose: 200.0 mg/kg/injection, schedule: Q04DX003 (ip), vehicle: saline with Tween-80.

Structures are written as SMILES. Where “and” joins values, the source holds several entries; their conditions need not be identical. Equal values may be shown once. Inconclusive results and toxic doses are left out.

For `CS(C)=O`, the T/C is, setting by setting: (dose: 93.75 mg/kg/injection, schedule: Q01DX009 (ip), vehicle: saline) 109 % of control; (dose: 187.5 mg/kg/injection, schedule: Q01DX009 (ip), vehicle: saline) 107 % of control; (dose: 375.0 mg/kg/injection, schedule: Q01DX009 (ip), vehicle: saline) 98 % of control; (dose: 750.0 mg/kg/injection, schedule: Q01DX009 (ip), vehicle: saline) 109 % of control; (dose: 1500.0 mg/kg/injection, schedule: Q01DX009 (ip), vehicle: saline) 104 % of control; (dose: 1.5 grams/kg/injection, schedule: Q01DX001 (ip), vehicle: saline) 99 % of control and 101 % of control. The T/C (dose: 1.5 grams/kg/injection, schedule: Q01DX009 (ip), vehicle: saline) was 101 % of control and 109 % of control; the T/C (dose: 2.0 % in 0.5 ml injection vol, schedule: Q01DX009 (ip), vehicle: water) is 103 % of control and 95 % of control; the T/C (dose: 3000.0 mg/kg/injection, schedule: Q01DX001 (ip), vehicle: water) is 104 % of control; the T/C (dose: 3000.0 mg/kg/injection, schedule: Q01DX009 (ip), vehicle: saline) was 95 % of control; the T/C (dose: 3.0 grams/kg/injection, schedule: Q01DX001 (ip), vehicle: saline) is 104 % of control and 106 % of control; the T/C (dose: 3.0 grams/kg/injection, schedule: Q01DX009 (ip), vehicle: saline) is 96 % of control. In addition, the T/C reads like this: (dose: 3.1 grams/kg/injection, schedule: Q01DX009 (ip), vehicle: water) 101 % of control; (dose: 4.0 % in 0.5 ml injection vol, schedule: Q01DX009 (ip), vehicle: water) 112 % of control and 94 % of control; (dose: 6000.0 mg/kg/injection, schedule: Q01DX001 (ip), vehicle: water) 99 % of control; (dose: 6.0 grams/kg/injection, schedule: Q01DX001 (ip), vehicle: saline) 95 % of control and 98 % of control; (dose: 6.0 grams/kg/injection, schedule: Q01DX009 (ip), vehicle: saline) 100 % of control and 106 % of control; (dose: 6.2 grams/kg/injection, schedule: Q01DX009 (ip), vehicle: water) 97 % of control. Besides, the T/C by setting is: (dose: 6.25 % in 0.5 ml injection vol, schedule: Q01DX009 (ip), vehicle: water) 103 % of control; (dose: 8.0 % in 0.5 ml injection vol, schedule: Q01DX009 (ip), vehicle: water) 103 % of control and 112 % of control; (dose: 12000.0 mg/kg/injection, schedule: Q01DX001 (ip), vehicle: water) 101 % of control; (dose: 12.0 grams/kg/injection, schedule: Q01DX001 (ip), vehicle: saline) 104 % of control and 96 % of control; (dose: 12.5 % in 0.5 ml injection vol, schedule: Q01DX009 (ip), vehicle: water) 110 % of control; (dose: 12.5 grams/kg/injection, schedule: Q01DX009 (ip), vehicle: water) 108 % of control. The T/C was 102 % of control and 105 % of control and 112 % of control (dose: 16.0 % in 0.5 ml injection vol, schedule: Q01DX009 (ip), vehicle: water); 37 % of control and 39 % of control (dose: 24.0 grams/kg/injection, schedule: Q01DX001 (ip), vehicle: saline); 117 % of control (dose: 25.0 % in 0.5 ml injection vol, schedule: Q01DX009 (ip), vehicle: water); 111 % of control and 121 % of control (dose: 32.0 % in 0.5 ml injection vol, schedule: Q01DX009 (ip), vehicle: water).
With `O=[N+]([O-])c1ccc(/C=C(/c2ccc([N+](=O)[O-])o2)S(=O)(=O)C(Cl)(Cl)Cl)cc1`, the T/C was 100 % of control (dose: 25.0 mg/kg/injection, schedule: Q01DX009 (ip), vehicle: saline); 89 % of control under setting [1]; 91 % of control under setting [2]; 86 % of control (dose: 100.0 mg/kg/injection, schedule: Q01DX009 (ip), vehicle: suspension in saline).
As for `COC(=O)/C(=C1/OC(=O)C(c2ccc(OC(C)=O)cc2)=C1O)c1ccc(Cl)cc1`, the T/C is 111 % of control (dose: 50.0 mg/kg/injection, schedule: Q01DX009 (ip), vehicle: saline + Tween-80 + alcohol) and 115 % of control (dose: 100.0 mg/kg/injection, schedule: Q01DX009 (ip), vehicle: saline + Tween-80 + alcohol).
Turning to `C=CC(=O)NC(C)(C)C(=O)O`, the T/C is, setting by setting: under setting [1], 99 % of control; under setting [2], 97 % of control; under setting [3], 99 % of control.
Turning to `CC(=O)OC1C(Br)C2CC1C1(Cl)C(=O)C(Cl)=C(Cl)C(=O)C21Cl` (configuration not stated), the T/C is 99 % of control under setting [1], 101 % of control under setting [2] and 99 % of control under setting [3].
Regarding `CS(=O)(=O)OCC(=O)NCC(O)CNC(=O)COS(C)(=O)=O`, the T/C by setting is: (dose: 200.0 mg/kg/injection, schedule: Q01DX009 (ip), vehicle: saline with Tween-80) 175 % of control; under setting [4], 181 % of control; (dose: 400.0 mg/kg/injection, schedule: Q04DX003 (ip), vehicle: saline with Tween-80) 162 % of control and 181 % of control.
Consider `Cc1[nH]c(-c2ccccc2)c2[nH]c(=O)n(-c3ccccc3)c(=O)c12`, for which the T/C is, setting by setting: (dose: 100.0 mg/kg/injection, schedule: Q04DX003 (ip), vehicle: Klucel (hydroxypropylcellulose) (HPC)) 93 % of control; (dose: 200.0 mg/kg/injection, schedule: Q04DX003 (ip), vehicle: Klucel (hydroxypropylcellulose) (HPC)) 98 % of control; (dose: 400.0 mg/kg/injection, schedule: Q04DX003 (ip), vehicle: Klucel (hydroxypropylcellulose) (HPC)) 93 % of control.
With `ClC(Cl)(Cl)C(Cl)(Cl)c1ccc(C(Cl)(Cl)C(Cl)(Cl)Cl)cc1`, the T/C (dose: 132.0 mg/kg/injection, schedule: Q04DX003 (ip), vehicle: saline with Tween-80) is 100 % of control; the T/C under setting [4] is 100 % of control; the T/C (dose: 300.0 mg/kg/injection, schedule: Q04DX003 (ip), vehicle: saline with Tween-80) was 100 % of control.
Consider `CC1(C)CCO/C(=C\C(=O)N2Cc3cc4ccccc4nc3C2)N1`, for which the T/C by setting is: (dose: 18.75 mg/kg/injection, schedule: Q01DX001 (ip), vehicle: saline sonified) 95 % of control; (dose: 37.5 mg/kg/injection, schedule: Q01DX001 (ip), vehicle: saline sonified) 95 % of control; (dose: 75.0 mg/kg/injection, schedule: Q01DX001 (ip), vehicle: saline sonified) 100 % of control.
For `CCC1OC(O)C=CC1=O` (configuration not stated), the T/C is, setting by setting: (dose: 1.5 mg/kg/injection, schedule: Q01DX005 (ip), vehicle: saline) 99 % of control; (dose: 3.0 mg/kg/injection, schedule: Q01DX005 (ip), vehicle: saline) 93 % of control.
Consider `CCCCCC(C=O)C(O)(C(F)(F)F)C(F)(F)Cl` (configuration not stated), for which the T/C by setting is: (dose: 50.0 mg/kg/injection, schedule: Q04DX003 (ip), vehicle: saline with Tween-80) 100 % of control; (dose: 100.0 mg/kg/injection, schedule: Q04DX003 (ip), vehicle: saline with Tween-80) 100 % of control; under setting [4], 109 % of control.
For `COc1ccc2c(c1)OC(C)(C)C(c1ccccc1)=C2c1ccc2c(c1)NCCO2`, the T/C is 99 % of control (dose: 15.0 mg/kg/injection, schedule: Q01DX005 (ip), vehicle: saline with Tween-80); 91 % of control (dose: 30.0 mg/kg/injection, schedule: Q01DX005 (ip), vehicle: saline with Tween-80); 91 % of control (dose: 60.0 mg/kg/injection, schedule: Q01DX005 (ip), vehicle: saline with Tween-80).
`Cc1nn(C(N)=S)c(C)c1N=Nc1ccc(F)cc1`: the T/C runs as follows: (dose: 25.0 mg/kg/injection, schedule: Q01DX005 (ip), vehicle: Klucel (hydroxypropylcellulose) (HPC)) 96 % of control; (dose: 50.0 mg/kg/injection, schedule: Q01DX005 (ip), vehicle: Klucel (hydroxypropylcellulose) (HPC)) 102 % of control; (dose: 100.0 mg/kg/injection, schedule: Q01DX005 (ip), vehicle: Klucel (hydroxypropylcellulose) (HPC)) 90 % of control.
With `COc1ccc(S(=O)(=O)c2cnc(N3CCCCC3)nc2N)cc1`, the T/C is 100 % of control (dose: 100.0 mg/kg/injection, schedule: Q04DX002 (ip), vehicle: saline); 98 % of control (dose: 200.0 mg/kg/injection, schedule: Q04DX002 (ip), vehicle: saline); 97 % of control (dose: 400.0 mg/kg/injection, schedule: Q04DX002 (ip), vehicle: saline).
In the case of `O=C(NC1c2ccccc2Oc2ccccc21)OC1CCCCC1`, the T/C by setting is: (dose: 50.0 mg/kg/injection, schedule: Q01DX005 (ip), vehicle: saline with Tween-80) 92 % of control; (dose: 100.0 mg/kg/injection, schedule: Q01DX005 (ip), vehicle: saline with Tween-80) 96 % of control; (dose: 200.0 mg/kg/injection, schedule: Q01DX005 (ip), vehicle: saline with Tween-80) 100 % of control.
Turning to `NC(CC1C=CCCC1)C(=O)O` (configuration not stated), the T/C was 98 % of control (dose: 60.0 mg/kg/injection, schedule: Q01DX005 (ip), vehicle: Klucel (hydroxypropylcellulose) (HPC)); 98 % of control (dose: 120.0 mg/kg/injection, schedule: Q01DX005 (ip), vehicle: Klucel (hydroxypropylcellulose) (HPC)); 95 % of control (dose: 240.0 mg/kg/injection, schedule: Q01DX005 (ip), vehicle: Klucel (hydroxypropylcellulose) (HPC)).
